The results in this text go back to patent US7335481B2, “Methods of identifying compounds that affect a fatty acid cell-surface receptor” (priority 2002, dated 2008).

The target of assay [1] is T1, FFAR (R10; GPR40) (Homo sapiens, UniProt O14842).
T1 construct: expressed in transfected cells; host or cells: HFF11 reporter cells (HeLa-based), line HFF11.pR10
Nature of the assay: HFF11 reporter cell assay, HFF11.pR10 cells expressing FFAR. The format is cell-based. Set-up: response of the R10 reporter cell line in the initial screening: dose or concentration left out as unconfirmed. To be noted: for activation of FFAR: result in words; for response of the R10 reporter cell line in the initial screening: FIG. 1a/1b. As for the experimental part: Construction of the HFF11 reporter cell lines (successor of the previously described HeLa based cell line, HF1) expressing the orphan GPCRs studied was performed as earlier reported. (Co-pending U.S. application Ser. No. 09/946,334 filed Sep. 21, 2001; Kotarsky et al. 2001.) They contain the reporter plasmid, pcFUS3, where the original promoter region has been extended by 6 NFkB and 6 STAT elements. (Co-pending U.S. application Ser. No. 09/946,334 filed Sep. 21, 2001; Kotarsky et al., unpublished.) On day 1, HFF11 reporter cells, with or without the test […] receptor, were seeded into 96-well plates at 20,000 cells per well in 100 μl growth medium. On day 3, the medium was removed and replaced by 90 μl serum-free medium. Substances (e.g., compounds) and controls were added in the appropriate concentrations 24 h later. Stimulations were performed at 37 degrees C. for 7 h. Cell lysates were assayed in a BMG Lumistar Galaxy luminometer as previously described. (Kotarsky et al., 2001.) Statistical analysis of the drug concentration-response data was carried out with the GraphPad PRISM software package. In the initial screening, reporter cell lines, with or without recombinant test receptors, were challenged with FFAs, such as AA and LA, at […]. Ten cell lines expressing ten “orphan receptors” (one receptor per cell line) were screened. The expressed receptors were labeled R1-R10.

Another assay has as its system orphan receptors R1-R9. Briefly: HFF11 reporter cell initial screening on the other orphan receptors. The format is cell-based, human. Set-up: dose or concentration left out as unconfirmed. To be noted: data not shown. From the text:
Taken together, this prompted an investigation of these FFAs using a screening approach aimed at identifying potential surface receptors. We used a highly sensitive reporter system (Kotarsky et al., 2001) expressing each of ten different putative human heptahelix receptors, for which the endogenous activating ligands were still unknown (i.e., “orphan receptors”), was used. The receptor sequences were selected from GenBank, based on a reasonably high sequence homology to the receptors for leukotriene B4 (an AA derivative), previously cloned. (Owman et al., 1996; Tryselius et al., 2000.)
Construction of the HFF11 reporter cell lines (successor of the previously described HeLa based cell line, HF1) expressing the orphan GPCRs studied was performed as earlier reported. (Co-pending U.S. application Ser. No. 09/946,334 filed Sep. 21, 2001; Kotarsky et al. 2001.) They contain the reporter plasmid, pcFUS3, where the original promoter region has been extended by 6 NFkB and 6 STAT elements. (Co-pending U.S. application Ser. No. 09/946,334 filed Sep. 21, 2001; Kotarsky et al., unpublished.) On day 1, HFF11 reporter cells, with or without the test heptahelix receptor, were seeded into 96-well plates at 20,000 cells per well in 100 μl growth medium. On day 3, the medium was removed and replaced by 90 μl serum-free medium. […]

The target of assay [2] is T1, FFAR (R10; GPR40). Nature of the assay: Aequorin reporter assay (calcium release) in CHO and HeLa cells transiently transfected with R10. It is filed as cell-based. To be noted: CHO and HeLa cells co-transfected with R10 and aequorin, versus sham-transfected cells, FIG. 2. How it is done: Cells were seeded the day before transfection in a 6-well plate (400,000 cells/well). Then, 0.8 μg of PCDM.AEQ reporter plasmid (Button et al., 1993.) and 1 μg pIRESpuro.R10 receptor plasmid, or pcEGFP for controls, were mixed with 100 μl OptiMEM containing 5 μl per transfection of PLUS reagent. After 15 min., 100 μl OptiMEM and 9 μl (HeLa cells) or 6 μl (CHO cells) of lipofectamine were added and incubated for another 15 min. Then, 800 μl OptiMEM were added, and the cells were washed and incubated with the transfection solution for 5 h. Two days after transfection, cells were loaded with 10 μM coelenterazine and injected into a 96-well plate containing test or control (vehicle) substances. Light emission was recorded for 1 min in a BMG Lumistar Galaxy luminometer and normalized to total emission using […] 100 mM CaCl2 for each well.
Activation of receptor R10 by LA was confirmed by stimulation in two different cell lines, CHO and HeLa, transiently co-transfected with expression vectors containing the R10 ORF (i.e., the gene encoding FFAR) and the calcium-activated photoprotein, aequorin. […] (FIG. 2.)
For orientation: Reporter assays use an easily measured gene product as a stand-in for the process of interest.

The mark [3] stands for this setting: FFAR response to free fatty acids, HFF11.pR10 reporter cell line, read-out: Mean EC50.
Setting [4] is: HFF11 reporter cells expressing FFAR.

Read-outs that look alike come from different tables or passages of the source.

T1 sequence (O14842 whole entry): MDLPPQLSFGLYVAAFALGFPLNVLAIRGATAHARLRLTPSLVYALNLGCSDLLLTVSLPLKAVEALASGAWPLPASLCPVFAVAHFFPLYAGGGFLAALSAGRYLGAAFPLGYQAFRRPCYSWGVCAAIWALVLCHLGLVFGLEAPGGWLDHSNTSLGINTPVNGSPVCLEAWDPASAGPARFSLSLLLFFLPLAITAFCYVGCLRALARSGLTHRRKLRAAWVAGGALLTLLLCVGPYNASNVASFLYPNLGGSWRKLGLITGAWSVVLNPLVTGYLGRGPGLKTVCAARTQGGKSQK

On to `CCCCCCC(O)C/C=C/CCCCCCCC(=O)O` (stereo not drawn) [Ricinelaidic acid, 12-hydroxy, trans 9-octadecanoic acid], for which the EC50 on FFAR (R10; GPR40) [1] (setting [3]) is 20 µM.
Take `COc1ccc(Cl)cc1C(=O)NCCc1ccc(S(=O)(=O)NC(=O)NC2CCCCC2)cc1` [Glibenclamid, Glibenclamide]: the “activation of FFAR” value at FFAR (R10; GPR40) [1] (setting [4]) is “inactive”.
As to `CCCCCCCC/C=C/CCCCCCCC(=O)O` [Elaidic acid, trans-9-octadecanoic acid], the EC50 on FFAR (R10; GPR40) [1] (setting [3]) worked out at 120 µM.
As for `CC(C)(CCCCCCCCCCC(C)(C)CC(=O)O)CC(=O)O` [MEDICA 16, 3,3,14,14-tetramethyl-hexadecanedioic acid], the “activation of FFAR” value on FFAR (R10; GPR40) [1] (setting [4]) was “strongly activated FFAR”.
For the compound `CCCCCCC(O)CCCCCCCCCCC(=O)O` (stereo not drawn) [Hydroxystearic acid, 12-hydroxyoctadecanoic acid], the EC50 on FFAR (R10; GPR40) [1] (setting [3]) was 8 µM.
Consider `CCCCCCC(O)C/C=C\CCCCCCCC(=O)O` (stereo not drawn) [Ricinoleic acid, 12-hydroxy, cis 9-octadecenoic acid], for which the concentration for a half-maximal effect (EC50) on FFAR (R10; GPR40) [1] (setting [3]) was determined as 8 µM.
Regarding `CCCCC/C=C\C=C\C(O)CCCCCCCC(=O)O` (racemic) [9-HODE, (±)-9-hydroxy, trans-10, cis-12-octadecanoic acid], on FFAR (R10; GPR40) [1] (setting [3]), the EC50 is 3.4 µM. Moreover, at FFAR (R10; GPR40) [1] (setting [4]), the “activation of FFAR” value is listed as “activated FFAR”.
For `CCCCC/C=C\C/C=C\C/C=C\C/C=C\CCCC(=O)O` [arachidonic acid], at FFAR (R10; GPR40) [1], the “response of the R10 reporter cell line in the initial screening” value was “no effect”. Besides, in the assay on orphan receptors R1-R9, the “effect on test receptors R1-R9 in the initial screening” value is listed as “no effect”.
In the case of `CCOC(=O)C(C)(C)Oc1ccc(Cl)cc1` [Clofibrate], the “activation of FFAR” value on FFAR (R10; GPR40) [1] (setting [4]) was “inactive”.
`CCCCC/C=C\C=C\CCCCCCCCC(=O)O` [CLA, trans-10, cis-12-octadecanoic acid]: the EC50 at FFAR (R10; GPR40) [1] (setting [3]) was found to be 77.3 µM. On FFAR (R10; GPR40) [1] (setting [4]), the “activation of FFAR” value is “activated FFAR”.
Consider `CCCC/C=C/CCCCCCCC(=O)O` [Myristelaidic acid, trans-9-tetradecenoic acid], for which the EC50 at FFAR (R10; GPR40) [1] (setting [3]) turned out to be 25 µM.
Consider `CCCCC/C=C\C/C=C\C/C=C\CCCCC(=O)O` [γ-Linoleic acid, cis-6, cis-9, cis-12-octadecanoic acid], for which the EC50 at FFAR (R10; GPR40) [1] (setting [3]) amounted to 28.5 µM.
For the compound `CCCCCC/C=C\CCCCCCCC(=O)O` [Palmitoleic acid, hexadecenoic acid], the EC50 at FFAR (R10; GPR40) [1] (setting [3]) was found to be 100 µM.
On to `CC1(COc2ccc(CC3SC(=O)NC3=O)cc2)CCCCC1` (racemic) [Ciglitazone, (±)-5-[4-(1-methylcyclohexylmethoxy)-benzyl]thiazolidine-2,4-dione], for which the “activation of FFAR” value on FFAR (R10; GPR40) [1] (setting [4]) was “strongly activated FFAR”.
As to `CCC=CCC=CCC=CCC=CCCCCC(=O)O` [Stearidonic acid, cis-6, cis-9, cis-12-15-octadecanoic acid], the EC50 at FFAR (R10; GPR40) [1] (setting [3]) turned out to be 8.9 µM.
Regarding `CCCCCCCCCC(=O)O` [Capric acid, Decanoic acid], the EC50 on FFAR (R10; GPR40) [1] (concentration response curves, HFF11 reporter cells expressing FFAR, FIG. 3, read-out: EC50) was 12.6 µM.
With `CCCCC/C=C\C/C=C\CCCCCCCCCC(=O)O` [EDA, cis-11, cis-14- -eicosadienoic acid], at FFAR (R10; GPR40) [1] (setting [3]), the EC50 came out at 20 µM.
With `CCCCCCCCCCCCCCCC(=O)O` [Palmitic acid, Hexadecanoic acid], the EC50 on FFAR (R10; GPR40) [1] (setting [3]) was found to be 143 µM.
Take `CCCCCCCC/C=C\CCCCCCCC(=O)O` [Oleic acid, cis-9-octadecanoic acid]: on FFAR (R10; GPR40) [1] (setting [3]), the EC50 worked out at 123 µM.
With `CCCCCCCCCCCCCCCCCC(=O)O` [stearic acid], at FFAR (R10; GPR40) [1] (setting [4]), the “activation of FFAR” value is listed as “able to activate the receptor”.
As for `CCCCCCCCCCCC(=O)O` [Lauric acid, Dodecanoic acid], the EC50 on FFAR (R10; GPR40) [1] (setting [3]) was found to be 22.5 µM.
`CCCCC/C=C\C/C=C\CCCCCCCC(=O)O` [Linoleic acid, cis-9, cis-12,-octadecanoic acid]: the EC50 on FFAR (R10; GPR40) [1] (setting [3]) was 38.4 µM. Besides, the “response of the R10 reporter cell line in the initial screening” value on FFAR (R10; GPR40) [1] is “strong and reproducible response”. Also, the “calcium-mediated luminescence upon stimulation” value on FFAR (R10; GPR40) [2] is recorded as “calcium-mediated luminescence flash”.

A word on the EC50: it is the concentration that produces a half-maximal response.
